From patent US8519124B2, “Chemokine receptor antagonists and use thereof” (Ono Pharmaceutical Co., Ltd., priority 2005, dated 2013)

Tests used:
[1] = Measurement of maximum plasma level (Cmax) and bioavailability (BA); assay type: in vivo; details: male, Crl:CD(SD), po; rat plasma; orally administered solution 10 mg/kg, fasting
Description: Measurement of Maximum Plasma Level (CMax) and Bioavailability (BA)
A test compound is weighed, dissolved in Solutol (trade name; manufactured by BASF-TAKEDA Vitamins Ltd.)/propylene glycol=7/3 which is heated to 60° C. and adjusted to 20 mg/mL; thereafter, the test compound is diluted by 10 times with distilled water for injection, and further diluted by 2 times with saline solution, by which intravenously administered solution is eventually made. The test compound is weighed, dissolved in Solutol (trade name; manufactured by BASF-TAKEDA Vitamins Ltd.)/propylene glycol=7/3 which is heated to 60° C., and adjusted to 20 mg/mL; thereafter, the test compound is diluted by 10 times with distilled water for injection, by which orally administered solution is eventually made. Intravenous administration is performed by rapid single administration (n=3) of intravenously administered solution (1 mg/kg) from the tail vein of Crl:CD(SD) Rat (male, manufactured by CHARLES RIVER LABORATORIES JAPAN, INC). Oral administration is performed by forced administration (n=3) of orally administered solution (10 mg/kg) into the stomach of Crl:CD(SD) Rat (male, manufactured by CHARLES RIVER LABORATORIES JAPAN, INC.) using a sonde. The administration is conducted under fasting conditions; water is freely ingested. A 0.35 mL blood sample is taken from cervical vein by using Heparinized Syringe at 15 minutes, 30 minutes, 1 hour, 2 hours, 4 hours, 6 hours, 8 hours, and 24 hours after administration. The obtained blood is stored in ice, and after centrifugation at 12,000 rpm for 5 minutes, blood plasma is fractionated. The blood plasma is preserved at a temperature of −80° C. The sample of blood plasma preserved at a temperature of −80° C. is dissolved; inner standard solution (100 μL) and acetonitrile (2 mL) are added to the blood plasma sample 100 μL and stirred; and the sample is centrifuged at 2,500 rpm for 10 minutes. After the supernatant is evaporated to dryness by means of a centrifugal concentrator, 67% dimethyl sulfoxide solution (150 μL) is added to the residue and dissolves them again; and 20 μL of the solution is analyzed by means of LC/MS/MS.
The analysis by means of LC/MS/MS should be performed, for example, under the following conditions:
Measurement device: Waters 2795 (manufactured by Waters Corporation)
Analytical column: Unison UK-C18, 3.0 μm particle size, 2.0 mm×30 mm (manufactured by Imtakt Corporation)
Analytical column temperature: Room temperature
Moving bed: 5 mM IPC-PFAA-7 solution/acetonitrile (9/1→1/9)
Measurement device: Quatro micro API (manufactured by Micromass Communications Inc.)
Method for ionization: ES+
Capillary electric potential: 3.30 kV
Source temperature: 120° C.
Desolvation temperature: 350° C.
The monitor ion which was suitable for each sample was selected.
The concentration transition in the rat blood plasma of the test compound is analyzed by means of non-compartment analysis method by using WinNonlin 4.0.1 (manufactured by Pharsight Corporation) to calculate the maximum blood concentration Cmax and the area under the blood concentration curve AUC.
BA is calculated by means of the following formula: BA(%)={(AUCp.o./Dosep.o.)/(AUCi.v./Dosei.v.)}×100
AUCp.o.: AUC in oral administration
Dosep.o.: Amount of the drug orally administered
AUCi.v.: AUC in intravenous administration
Dosei.v.: Amount of the drug intravenously administered

[2] = test system: CHL/IU (cell line derived from a Chinese hamster lung); test: Phospholipidosis detecting system using fluorescent labeling phospholipid analog (NBD-PE); assay type: cell-based; details: compound dose: 50 μM; for The rate of increase of phopholipid accumulation (%): CHL/IU cells, about 24 hours, relative to NBD-PE control
Description: Investigation with a Phospholipidosis Detecting System Using Fluorescent Labeling Phospholipidosis Analog (i) Phospholipid Accumulation Measurement 100 μL/well as required (1 dose 2 wells) of cell suspension of CHL/IU (cell line derived from a Chinese hamster lung) adjusted by MEM (7×10^4 cells/mL) adjusted by MEM (minimum essential medium) culture medium was added to a 96-well plate (96-well clear-bottom plate), and cultured for about 24 hours. After culture, the supernatant of the 96-well plate was removed, and the 100 μL/well compounds of each concentration dissolved and suspended in a minimum essential medium (MEM) including 25 μmol/L nitrobenzoxadiazole dipalmitoyl phosphatidylethanolamine (NBD-PE) (hereinafter abbreviated as a NPD-PE medium) were added and treated for about 24 hours. The treatment concentrations of each compound were set to be 6.25, 12.5, 25, 50 and 100 μmol/L. The positive control substance was set to be amiodarone hydrochloride, and the treatment concentrations were set to be 1.25, 2.5, 5, 10 and 20 μmol/L. In addition, 5 untreated controls (only MEM) and 5 NBD-PE controls (made by means of adding a 1/100 amount of DMSO to the NBD-PE culture medium) were set per compound, and cultured in the same manner. After finishing the culture, the cultures were washed twice with Phosphate buffered saline (hereinafter abbreviated as PBS) (−) 100 μL/well, and the MEM (100 μL) was added to all of the treatment wells including 2 empty wells for WST-1 background controls and cultured for about a half hour. The fluorescence intensities of each well were measured by using a microplate reader (manufactured by Molecular Devices Inc., SPECTRA max M2; the excitation wavelength 485 nm/the fluorescence wavelength 535 nm). (ii) Analysis Using the average values of each dose×2 wells, a phospholipid increase rate (%) to the NBD-PE control was calculated by using the following calculating formula: Phospholipid increase rate (%)=100×{(test article fluorescence intensity−untreated control fluorescence intensity)/(NBD-PE control fluorescence intensity−untreated control fluorescence intensity (iii) Cytotoxicity Assay The 96-well plate measured in the phospholipid accumulation measurement was measured by means of Plate Reader (manufactured by Molecular Devices Inc., SPECTRA max M2) with the main wavelength of 450 nm and the correct wavelength of 690 nm to calculate a Pre value. An amount of 5 μL/well of Premix WS T-1 was added to each of the 96 hole plates by which Pre measurement was conducted. After culture for 2 to 4 hours, the 96-well plate was measured as well as the Pre measurement to calculate an Aft value. Then, the background control value was subtracted from the each measured value. A value which was calculated by subtracting the Pre value from the Aft value was used, then the cell growth rate (%) was calculated by using the following calculating formula: Cell growth rate (%)=100×{(test article OD)/(NBD-PE control OD)} (iv) Determination A test dose that indicated value of equal to or more than 25% of the maximum phospholipid accumulation increase rate of amiodarone which was the positive control was determined as positive. In addition, the dose whose cell growth rate was equal to or less than 50% in the cytotoxicity assay was not used for determination of existence or nonexistence of a phospholipidosis inductive effect.

SMILES	Cmax [1] [ng/mL]	Judgement (phospholipidosis inductive effect) [2]	The rate of increase of phopholipid accumulation (%) [2] [%]
CC(C)(C)CN1CCC2(CC1)CCN(C(=O)Cc1ccc(CN(Cc3ncc[nH]3)Cc3ncc[nH]3)cc1)C2 [Example 40 (68), 1-(4-{2-[8-(2,2-dimethylpropyl)-2,8-diazaspiro[4.5]dec-2-yl]-2-oxoethyl}phenyl)-N,N-bis(1H-imidazol-2-ylmethyl)methanamine]	175	negative	18
O=C(CC(=O)N1CCC2(CCN(C3CCCCC3)CC2)C1)N1CCC(N(Cc2ncc[nH]2)Cc2ncc[nH]2)CC1 [Example 65 (4), 1-[3-(8-cyclohexyl-2,8-diazaspiro[4.5]dec-2-yl)-3-oxopropanoyl]-N,N-bis(1H-imidazol-2-ylmethyl)-4-piperidinamine]	420	negative	12
CC(C)CN1CCC2(CCN(Cc3ccc(C(=O)N(Cc4ncc[nH]4)Cc4ncc[nH]4)cc3)CC2)C1 [Example 8 (113), N,N-bis(1H-imidazol-2-ylmethyl)-4-[(2-isobutyl-2,8-diazaspiro[4.5]dec-8-yl)methyl]benzamide]	80	negative	10
CCC(CC)N1CCC2(CCN(C(=O)c3ccc(CN(Cc4ncc[nH]4)Cc4nccn4C)cc3)C2)CC1 [Example 40 (72), 1-(4-{[8-(1-ethylpropyl)-2,8-diazaspiro[4.5]dec-2-yl]carbonyl}phenyl)-N-(1H-imidazol-2-ylmethyl)-N-[(1-methyl-1H-imidazol-2-yl)methyl]methanamine]	157	negative	16
